Source: ChEMBL document CHEMBL4219156, “Synthesis, evaluation and CoMFA/CoMSIA study of nitrofuranyl methyl N-heterocycles as novel antitubercular agents” (2018)
Values after ≈ are worked out from the molar mass of the structure shown.

Tested on: Mycobacterium tuberculosis
Assay: Antitubercular activity against Mycobacterium tuberculosis H37Rv ATCC 27294 after 7 days by MABA
Assay type: functional
Set-up: -logMIC: unit not given here
Conditions: for MIC: Mycobacterium tuberculosis, H37Rv ATCC 27294, 168 h

SMILES: CCC(C)C(=O)N1CCN(Cc2ccc([N+](=O)[O-])o2)CC1 (stereo not drawn)
- -logMIC: 3.303
- MIC: 3.09 µg/mL (≈ 10.5 µM)

SMILES: O=[N+]([O-])c1ccc(CN2CCC(c3ccc(OC(F)(F)F)cc3)CC2)o1
- -logMIC: 3.303
- MIC: 0.497 µg/mL (≈ 1.34 µM)

SMILES: NNC(=O)c1ccncc1 [ISONIAZID]
- MIC: 0.038 µg/mL (≈ 0.277 µM)

SMILES: COc1ccc(CON=C2CCN(Cc3ccc([N+](=O)[O-])o3)CC2)cc1
- -logMIC: 4.293
- MIC: 0.051 µg/mL (≈ 0.142 µM)

SMILES: CON=C1CCN(Cc2ccc([N+](=O)[O-])o2)CC1
- -logMIC: 2.701
- MIC: 1.99 µg/mL (≈ 7.85 µM)

SMILES: CNc1ccc(C(=O)N2CCN(Cc3ccc([N+](=O)[O-])o3)CC2)cc1
- -logMIC: 3.315
- MIC: 0.484 µg/mL (≈ 1.41 µM)

SMILES: CO[C@H]1/C=C/O[C@@]2(C)Oc3c(C)c(O)c4c(O)c(c(/C=N/N5CCN(C)CC5)c(O)c4c3C2=O)NC(=O)/C(C)=C\C=C\[C@H](C)[C@H](O)[C@@H](C)[C@@H](O)[C@@H](C)[C@H](OC(C)=O)[C@@H]1C [RIFAMPIN]
- MIC: 0.127 µg/mL (≈ 0.154 µM)

SMILES: O=C(CN1CCN(Cc2ccc([N+](=O)[O-])o2)CC1)Oc1ccccc1
- -logMIC: 3.325
- MIC: 0.473 µg/mL (≈ 1.37 µM)

SMILES: O=C(C1CCCCC1)N1CCN(Cc2ccc([N+](=O)[O-])o2)CC1
- -logMIC: 3.621
- MIC: 0.239 µg/mL (≈ 0.744 µM)

SMILES: O=[N+]([O-])c1ccc(CON=C2CCN(Cc3ccc([N+](=O)[O-])o3)CC2)cc1
- -logMIC: 3.742
- MIC: 0.181 µg/mL (≈ 0.484 µM)

SMILES: CC(=O)CCN1CC2CN(Cc3ccc([N+](=O)[O-])o3)CC2C1 (stereo not drawn)
- MIC: 32 µg/mL (≈ 104 µM)

SMILES: CC(C)(C)c1ccc(N2CCN(Cc3ccc([N+](=O)[O-])o3)CC2)cc1
- -logMIC: 4.796
- MIC: 0.016 µg/mL (≈ 0.0466 µM)

SMILES: COc1ccc(C(=O)N2CCN(Cc3ccc([N+](=O)[O-])o3)CC2)cc1
- -logMIC: 3.408
- MIC: 0.391 µg/mL (≈ 1.13 µM)

SMILES: CC(C)CC(=O)N1CCN(Cc2ccc([N+](=O)[O-])o2)CC1
- -logMIC: 2.51
- MIC: 0.498 µg/mL (≈ 1.69 µM)

SMILES: O=[N+]([O-])c1ccc(CN2Cc3ccccc3C2)o1
- -logMIC: 2.749
- MIC: 1.78 µg/mL (≈ 7.3 µM)

SMILES: O=[N+]([O-])c1ccc(CN2CCC(=NOCc3ccc(C(F)(F)F)cc3)CC2)o1
- -logMIC: 3.673
- MIC: 0.212 µg/mL (≈ 0.534 µM)

SMILES: CC(=O)N1CCC2(CCN(Cc3ccc([N+](=O)[O-])o3)CC2)CC1
- MIC: 32 µg/mL (≈ 99.6 µM)

SMILES: O=C(c1ccc(F)cc1)N1CCN(Cc2ccc([N+](=O)[O-])o2)CC1
- -logMIC: 2.779
- MIC: 1.66 µg/mL (≈ 4.99 µM)

SMILES: O=[N+]([O-])c1ccc(CN2CCC(=NOCc3ccccc3)CC2)o1
- -logMIC: 3.608
- MIC: 0.247 µg/mL (≈ 0.75 µM)

SMILES: COc1ccc(C2CCN(Cc3ccc([N+](=O)[O-])o3)CC2)cc1
- -logMIC: 3.4
- MIC: 0.398 µg/mL (≈ 1.26 µM)

SMILES: O=C(CN1CCN(Cc2ccc([N+](=O)[O-])o2)CC1)Nc1ccccc1
- -logMIC: 1.99
- MIC: 10.2 µg/mL (≈ 29.7 µM)

SMILES: CC(C)CC(=O)N1CCC2(CCN(Cc3ccc([N+](=O)[O-])o3)CC2)CC1
- MIC: 2.41 µg/mL (≈ 6.63 µM)

SMILES: O=[N+]([O-])c1ccc(CN2Cc3ccc(F)cc3C2)o1
- -logMIC: 3.31
- MIC: 0.49 µg/mL (≈ 1.87 µM)

SMILES: O=C(C1CCCCC1)N1CC2CN(Cc3ccc([N+](=O)[O-])o3)CC2C1 (stereo not drawn)
- MIC: 7.68 µg/mL (≈ 22.1 µM)

SMILES: O=C(c1ccccc1)N1CCN(Cc2ccc([N+](=O)[O-])o2)CC1
- -logMIC: 2.733
- MIC: 1.85 µg/mL (≈ 5.86 µM)

SMILES: O=[N+]([O-])c1ccc(CN2CCc3ccc(Br)cc3C2)o1
- -logMIC: 4.206
- MIC: 0.062 µg/mL (≈ 0.184 µM)

SMILES: CC(=O)N1CCN(Cc2ccc([N+](=O)[O-])o2)CC1
- -logMIC: 1.922
- MIC: 12 µg/mL (≈ 47.3 µM)

SMILES: COc1ccc2c(c1)CN(Cc1ccc([N+](=O)[O-])o1)CC2
- -logMIC: 3.918
- MIC: 0.121 µg/mL (≈ 0.42 µM)

SMILES: CCON=C1CCN(Cc2ccc([N+](=O)[O-])o2)CC1
- -logMIC: 3.029
- MIC: 0.935 µg/mL (≈ 3.5 µM)

SMILES: O=C(C1CCCCC1)N1CCC2(CCN(Cc3ccc([N+](=O)[O-])o3)CC2)CC1
- MIC: 3.87 µg/mL (≈ 9.93 µM)

SMILES: N#Cc1ccc2c(c1)CN(Cc1ccc([N+](=O)[O-])o1)CC2
- -logMIC: 3.988
- MIC: 0.103 µg/mL (≈ 0.364 µM)

SMILES: O=[N+]([O-])c1ccc(CN2CCC3(CC2)CCN(S(=O)(=O)c2ccc(Cl)cc2)CC3)o1
- -logMIC: 4.51
- MIC: 0.031 µg/mL (≈ 0.0683 µM)

SMILES: CC(C)(C)c1cccc(N2CCC3(CCN(Cc4ccc([N+](=O)[O-])o4)CC3)CC2)c1
- -logMIC: >4.796
- MIC: < 0.016 µg/mL

SMILES: O=[N+]([O-])c1ccc(CN2CCc3ccc(Cl)cc3C2)o1
- -logMIC: 3.962
- MIC: 0.109 µg/mL (≈ 0.372 µM)

SMILES: CC(C)(C)c1ccc(N2CCC3(CCN(Cc4ccc([N+](=O)[O-])o4)CC3)CC2)cc1
- -logMIC: >4.796
- MIC: < 0.016 µg/mL

SMILES: O=[N+]([O-])c1ccc(CN2CCC(c3ccc(C(F)(F)F)cc3)CC2)o1
- -logMIC: 2.609
- MIC: 2.46 µg/mL (≈ 6.94 µM)

SMILES: CC(C)(C)OC(=O)CN1CCN(Cc2ccc([N+](=O)[O-])o2)CC1
- -logMIC: 2.514
- MIC: 3.06 µg/mL (≈ 9.4 µM)

SMILES: O=[N+]([O-])c1ccc(S(=O)(=O)N2CC3CN(Cc4ccc([N+](=O)[O-])o4)CC3C2)cc1 (stereo not drawn)
- MIC: 0.235 µg/mL (≈ 0.556 µM)

SMILES: CC(C)(C)C(=O)N1CC2CN(Cc3ccc([N+](=O)[O-])o3)CC2C1 (stereo not drawn)
- MIC: 1.55 µg/mL (≈ 4.81 µM)

SMILES: CN(C)C(=O)CN1CCN(Cc2ccc([N+](=O)[O-])o2)CC1
- -logMIC: 1.516
- MIC: 30.5 µg/mL (≈ 103 µM)

SMILES: O=[N+]([O-])c1ccc(CN2CCC(c3ccc(F)cc3)CC2)o1
- -logMIC: 3.337
- MIC: 0.46 µg/mL (≈ 1.51 µM)

SMILES: N#Cc1ccc2c(c1)CN(Cc1ccc([N+](=O)[O-])o1)C2
- -logMIC: 3.766
- MIC: 0.171 µg/mL (≈ 0.635 µM)

SMILES: CC(C)(C)c1ccc(S(=O)(=O)N2CC3CN(Cc4ccc([N+](=O)[O-])o4)CC3C2)cc1 (stereo not drawn)
- MIC: 0.126 µg/mL (≈ 0.291 µM)

SMILES: CCOC(=O)CN1CCN(Cc2ccc([N+](=O)[O-])o2)CC1
- -logMIC: 2.414
- MIC: 3.85 µg/mL (≈ 13 µM)

SMILES: COc1ccc(S(=O)(=O)N2CC3CN(Cc4ccc([N+](=O)[O-])o4)CC3C2)cc1 (stereo not drawn)
- MIC: 0.405 µg/mL (≈ 0.994 µM)

SMILES: O=[N+]([O-])c1ccc(CN2CCNCC2)o1
- -logMIC: 3.616
- MIC: 0.242 µg/mL (≈ 1.15 µM)

SMILES: O=[N+]([O-])c1ccc(CN2CC3CN(S(=O)(=O)c4ccc(C(F)(F)F)cc4)CC3C2)o1 (stereo not drawn)
- MIC: 0.123 µg/mL (≈ 0.276 µM)

SMILES: O=[N+]([O-])c1ccc(CN2CCC(c3ccc(Br)cc3)CC2)o1
- -logMIC: 3.31
- MIC: 0.49 µg/mL (≈ 1.34 µM)

SMILES: CC(=O)CN1CCN(Cc2ccc([N+](=O)[O-])o2)CC1
- -logMIC: 2.117
- MIC: 7.63 µg/mL (≈ 28.6 µM)

SMILES: CC(C)(C)C(=O)N1CCN(Cc2ccc([N+](=O)[O-])o2)CC1
- -logMIC: 3.023
- MIC: 0.948 µg/mL (≈ 3.21 µM)
